Experimental findings from US5362634A, “Process for producing A83543 compounds” (DowElanco, priority 1991, dated 1994) are described below.

What is called LC50 is the concentration lethal to half of the exposed cells or organisms.

Series [1] relates to fourth instar yellow fever mosquito larvae. The experiment in a line: whole plant or invertebrate. Also noted: species or system Aedes aegypti. Conditions: 24 hr; for mortality at 0.312 ppm: Aedes aegypti, read-out: Percent Control. From the text: (§1) The A83543 components were active against yellow fever mosquito (Aedes aegypti) larvae in standard in vitro mosquito larvicide tests.
^a At 24 hr when treated at 0.312 ppm

Series [2] deals with neonate CBW (cotton bollworm) larvae. Briefly: Percent control of neonate CBW larvae by A83543 components, topical pipet method. Conditions: for mortality at 0.5 ppm / mortality at 1 ppm / mortality at 5 ppm / mortality at 10 ppm: 24 h, read-out: Percent Control. In kind it is in vivo, Heliothis zea. The method, then: Each test compound was formulated by dissolving the compound in an acetone/alcohol (1:1) mixture containing 23 g of "Toximul R" (sulfonate/nonionic emulsifier blend) and 13 g of "Toximul S" (sulfonate/nonionic emulsifier blend) per liter. These mixtures were then diluted with water to give the indicated concentrations.
Additional insects were evaluated using similar formulations and evaluation procedures, with the exceptions noted.
After standard exposure periods, percent mortality was evaluated. The following abbreviations are used:
^1 Treatments with the same letter in parentheses are similar at the
^2 Topical pipet method with 20 larve/replicate and 4 replicates; one
day between treatment and observation.

The subject of series [3] is CRW (Southern corn rootworm). Briefly: LC50 against CRW. In kind it is in vivo, Diabrotica undecimpunctata howardi. Conditions: rate in soil by wt. From the text:
(§2) ^a Corn rootworm rate in soil by wt.; all others as spray

Series [4] concerns Grain Aphid. Briefly: LC50 against Grain Aphid. Conditions: Sitobion avenae; spray concentration. It counts as in vivo.
Text: as §2

The test system of series [5] is Spodoptera eridania. The experiment in a line: Outdoor pot tests against Southern armyworm. In kind it is in vivo. From the text: Table XV compares the effectiveness and persistence of A83543A treatment with that of methomyl in outdoor pot tests against Southern armyworm.
Series [6] has as its system SM (twospotted spider mite). Briefly: LC50 against SM. Conditions: Tetranychus urticae; spray concentration. In kind it is in vivo.
Text: as §2

The subject of series [7] is CBW (cotton bollworm). Briefly: LC50 against CBW, contact. In kind it is in vivo, Heliothis zea. Conditions: spray concentration.
Text: as §2

For series [8], the system named is SAW (Southern armyworm). Briefly: LC50 against SAW, foliar. In kind it is in vivo. Conditions: Spodoptera eridania, spray concentration.
Text: as §2

Series [9] concerns first instar yellow fever mosquito larvae. Briefly: In vitro mosquito larvicide test, first instar. Conditions: Aedes aegypti, 24 h, lowest concentration with 100% inhibition after 24 hr, microtiter plates; read-out: Minimal Inhibitory Concentration.
Text: as §1

For series [10], the system named is adult stable fly (ASF). Briefly: In vitro efficacy, exposure of ASF to chemically added serum samples. Conditions: Stomoxys calcitrans, read-out: Percent insect mortality. From the text: (§3) ^1 Percent insect mortality following 24 to 48 hrs. in vitro exposure
(§4) to chemically added serum samples

In series [11] the test system is blow fly larvae (LBF). The experiment in a line: In vitro efficacy, exposure of LBF to chemically added serum samples.
Text: as §3, §4

Series [12] deals with blow fly larvae (LBF). Briefly: Guinea pig systemic test, blow fly larvae. It counts as in vivo. The method, then:
(§5) Adult guinea pigs are used in this test system. The compounds to be tested are dissolved in aqueous polyvinyl pyrrolidone or in polyethylene glycol 200, and an appropriate amount of the solution is administered either orally or by intraperitoneal injection.
(§6) Blood is drawn from the guinea pigs at 30 minutes except as noted, and the samples of blood are centrifuged. Dental wicks are saturated with the blood serum, and then exposed in Petri dishes to adult stable flies; blow fly larvae are exposed in test tubes. After 24 and 48 hours, the insects are examined, and the number of dead are counted. The results of the tests are recorded as the percent of the insects which are killed.

Series [13] concerns adult stable fly (ASF). Briefly: Guinea pig systemic test, adult stable fly. It counts as in vivo, Stomoxys calcitrans. How it is done:
as §5, §6

Where [14] appears, read: 0.5 ppm, topical pipet, one day.

Values after ≈ are worked out from the molar mass of the structure shown. Where two headings read alike, the source gives them in different places.

On to `CC[C@H]1CCC[C@H](O[C@H]2CC[C@H](N(C)C)[C@@H](C)O2)CC(=O)C2=C[C@@H]3[C@@H](C=C[C@@H]4C[C@@H](O[C@@H]5O[C@@H](C)[C@H](OC)[C@@H](OC)[C@H]5OC)C[C@@H]34)[C@@H]2CC(=O)O1` [A83543F], for which, in series [1], the mortality at 0.312 ppm amounted to 0%. Also, the mortality at 0.5 ppm in [2] (setting [14]) came to 0%. Moreover, in series [2] (1 ppm, topical pipet, one day), the mortality at 1 ppm is 0%. Besides, the mortality at 5 ppm in series [2] (5 ppm, topical pipet, one day) worked out at 0%. For the same compound, the mortality at 10 ppm in series [2] (10 ppm, topical pipet, one day) was 95%.

For the compound `CO[C@@H]1[C@@H](OC)[C@H](C)O[C@@H](O[C@H]2C[C@H]3[C@@H]4C=C5C(=O)[C@H](C)[C@@H](O[C@H]6CC[C@H](N(C)C)[C@@H](C)O6)CCC[C@H](C)OC(=O)C[C@H]5[C@@H]4C=C[C@@H]3C2)[C@@H]1OC` [A83543E], the mortality at 0.312 ppm in series [1] worked out at 80%. Also, in series [2] (topical), the mortality at 0.5 ppm is 28%, the mortality at 1 ppm came to 58%, the mortality at 5 ppm turned out to be 100% and the mortality at 10 ppm came out at 100%.

As to `CNC(=O)ON=C(C)SC` [methomyl, reference compound], the LC50 amounted to 6 µg/mL (≈ 37 µM) in series [3]; 5.4 µg/mL (≈ 33.3 µM) in [4]; 71.4 µg/mL (≈ 440 µM) in series [6]; 14.5 µg/mL (≈ 89.4 µM) in series [7]; 11.4 µg/mL (≈ 70.3 µM) in series [8]. Besides, the mortality at 63 ppm was found to be 100% in series [5] (24 h, 1 day after treatment); 20% in series [5] (120 h, 5 days after treatment); 15% in [5] (168 h, 7 days after treatment); 0% in [5] (336 h, 14 days after treatment). Besides, the mortality at 125 ppm in [5] (24 h, 1 day after treatment) was determined as 100%; in series [5] (120 h, 5 days after treatment) it was 35%; in [5] (168 h, 7 days after treatment) it was 40%; in series [5] (336 h, 14 days after treatment), 20%. The mortality at 250 ppm worked out at 100% in [5] (24 h, 1 day after treatment); 85% in series [5] (120 h, 5 days after treatment); 45% in [5] (168 h, 7 days after treatment); 40% in series [5] (336 h, 14 days after treatment). In addition, the mortality at 500 ppm is 100% in series [5] (24 h, 1 day after treatment); 90% in series [5] (120 h, 5 days after treatment); 85% in [5] (168 h, 7 days after treatment); 60% in series [5] (336 h, 14 days after treatment).

Consider `CC[C@H]1CCC[C@H](O[C@H]2CC[C@@H](N(C)C)[C@@H](C)O2)[C@@H](C)C(=O)C2=C[C@@H]3[C@@H](C=C[C@@H]4C[C@@H](O[C@@H]5O[C@@H](C)[C@H](OC)[C@@H](OC)[C@H]5OC)C[C@@H]34)[C@@H]2CC(=O)O1` [A83543G], for which the “Percent Control” value was found to be 0% in series [1] (0.312 ppm); 0% in series [2] (0.5 ppm, topical pipet, one day, 1440 min); 0% in [2] (1 ppm, topical pipet, one day); 20% in [2] (5 ppm, topical pipet, one day, 1440 min); 80% in [2] (10 ppm, topical pipet, one day, 1440 min).

Turning to `CC[C@H]1CCC[C@H](O[C@H]2CC[C@H](N)[C@@H](C)O2)[C@@H](C)C(=O)C2=C[C@@H]3[C@@H](C=C[C@@H]4C[C@@H](O[C@@H]5O[C@@H](C)[C@H](OC)[C@@H](OC)[C@H]5OC)C[C@@H]34)[C@@H]2CC(=O)O1` [A83543C], in series [1], the mortality at 0.312 ppm amounted to 60%. The mortality at 0.5 ppm in series [2] (setting [14]) was found to be 5%. Moreover, in [2] (1 ppm, topical pipet, one day), the mortality at 1 ppm stood at 85%. Besides, the mortality at 5 ppm in series [2] (5 ppm, topical pipet, one day) is 93%. Moreover, in [2] (10 ppm, topical pipet, one day), the mortality at 10 ppm stood at 100%. Also, the MIC in [9] is 0.031 µg/mL (≈ 0.044 µM).

On to `CC[C@H]1CCC[C@H](O[C@H]2CC[C@H](NC)[C@@H](C)O2)[C@@H](C)C(=O)C2=C[C@@H]3[C@@H](C=C[C@@H]4C[C@@H](O[C@@H]5O[C@@H](C)[C@H](OC)[C@@H](OC)[C@H]5OC)C[C@@H]34)[C@@H]2CC(=O)O1` [A83543B], for which the mortality at 0.312 ppm in series [1] stood at 60%. Also, in series [2] (setting [14]), the mortality at 0.5 ppm came to 35%. The mortality at 1 ppm in series [2] (1 ppm, topical pipet, one day) came to 80%. Also, the mortality at 5 ppm in series [2] (5 ppm, topical pipet, one day) turned out to be 100%. For the same compound, the mortality at 10 ppm in series [2] (10 ppm, topical pipet, one day) was 100%. The MIC in series [9] was 0.016 µg/mL (≈ 0.0223 µM).

Consider `CC[C@H]1CCC[C@H](O[C@H]2CC[C@H](N(C)C)[C@@H](C)O2)[C@@H](C)C(=O)C2=C[C@@H]3[C@@H](C=C(C)[C@@H]4C[C@@H](O[C@@H]5O[C@@H](C)[C@H](OC)[C@@H](OC)[C@H]5OC)C[C@@H]34)[C@@H]2CC(=O)O1` [A83543D], for which the mortality at 0.312 ppm in series [1] stood at 30%; in series [10] (24 hr), 0%; in series [10] (48 hr), 0%. The mortality at 0.625 ppm is 0% in series [10] (24 hr) and 60% in series [10] (48 hr). Moreover, the results for the mortality at 1.25 ppm in series [10] (24 hr) and in [10] (48 hr) were 10% and 90%, respectively. Also, the results for the mortality at 2.5 ppm in [10] (24 hr) and in series [10] (48 hr) were 20% and 100%, respectively. Also, the mortality at 5 ppm in series [10] (24 hr) was determined as 20%; in [10] (48 hr), 90%; in series [2] (topical) it was 100%. The figures for the mortality at 10 ppm in series [10] (24 hr), in [10] (48 hr) and in [2] (topical) were 50%, 100% and 100%, respectively. For the same compound, the Percent insect mortality in series [11] (0.312 ppm, 24 hr) amounted to 25%; in series [11] (0.312 ppm, 48 hr), 25%; in series [11] (0.625 ppm, 24 hr), 50%; in [11] (0.625 ppm, 48 hr) it was 75%; in series [11] (1.25 ppm, 24 hr), 80%; in series [11] (1.25 ppm, 48 hr), 90%. The Percent insect mortality in series [11] (2.5 ppm, 24 hr) was 90%; in series [11] (2.5 ppm, 48 hr), 100%; in series [11] (5 ppm, 24 hr), 90%; in series [11] (5 ppm, 48 hr), 100%; in series [11] (10 ppm, 24 hr), 100%; in [11] (10 ppm, 48 hr), 100%. Moreover, the mortality at 0.5 ppm in [2] (topical) is 58%. Besides, the mortality at 1 ppm in [2] (topical) was found to be 90%. Also, the “% Activity LBF” value is reported as 0% in [12] (10 mg/kg IP, bled 30 min); 0% in [12] (10 mg/kg IP, bled 5 hr); 0% in [12] (10 mg/kg IP, bled 24 hr); 0% in series [12] (30 mg/kg IP, bled 30 min); 0% in series [12] (30 mg/kg IP, bled 5 hr); 0% in series [12] (30 mg/kg IP, bled 24 hr). The “% Activity LBF” value in series [12] (50 mg/kg IP, bled 30 min) was determined as 75%; in series [12] (50 mg/kg IP, bled 5 hr), 0%; in series [12] (50 mg/kg IP, bled 24 hr) it was 25%. The “% Activity ASF” value in series [13] (10 mg/kg IP, bled 30 min) is on record as 0%; in series [13] (10 mg/kg IP, bled 5 hr) it was 0%; in [13] (10 mg/kg IP, bled 24 hr) it was 10%; in [13] (30 mg/kg IP, bled 30 min) it was 0%; in series [13] (30 mg/kg IP, bled 5 hr), 0%; in series [13] (30 mg/kg IP, bled 24 hr), 0%. The “% Activity ASF” value is on record as 0% in series [13] (50 mg/kg IP, bled 30 min); 0% in series [13] (50 mg/kg IP, bled 5 hr); 0% in series [13] (50 mg/kg IP, bled 24 hr).
